Common to all, as to assay type: cell-based
Experiment [1] concerns the target T1, human growth hormone secretagogue receptor type 1a (hGHSR1A) (Homo sapiens, UniProt Q92847).
T1 construct: expressed in transfected cells
The experiment can be described thus: Fluo-4 fluorescence calcium response in hGHSR1a cells (VIPR). The following applies: 30 μM BAPTA-AM, 100 nM ghrelin. The protocol: Cells were grown to 80-95% confluence in tissue culture flasks (T-225, Corning) and harvested by trypsinization (Trypsin/EDTA, GIBCOBRL). Cells were dispensed (about 1×10^5 cells/0.2 ml/well) into 96-well black clear-bottom BIOCOAT poly-D-lysine plates (BECTON DICKENSON, Bedford, Mass.) in growth media and incubated overnight at 37° C. in a humidified incubator at 10% CO^2. […] Wells were washed two times with 100 μl of enriched-PBS, and then 100 μl enriched-PBS with or without antagonist was added for 15-30 minutes prior to assay on the AURORA fluorescence plate reader VIPR (ex. 480 nm, em. 535 nm). […] The VIPR instrument was used to add agonist (in 100 μl enriched-PBS) after recording a 10 sec. baseline and the fluorescence was measured for up to 300 sec.

Experiment [2] deals with T1, human growth hormone secretagogue receptor type 1a (hGHSR1A). The experiment can be described thus: Aequorin luminescence in hGHSR1A cells (WALLAC MICROBETA JET). The following applies: 30 μM BAPTA-AM, 100 nM ghrelin.
Method: Cells were charged with the aequorin substrate, coelenterazine h (MOLECULAR PROBES, #C-6780), by removing the growth media and incubating the cells with 75 μl of charge buffer (DMEM GIBCOBRL#12320-032; 0.1% FBS GEMINI BIO-PRODUCTS, Inc. #100-107; 5 μM coelenterazine h; 30 μM reduced glutathione) for 2 hours at 37° C., 10% CO^2. […] The cells were then washed and loaded with 100 μl of enriched-PBS with or without the indicated antagonist. […] In order to obtain more consistent kinetics, the Jet was set to simultaneously read only six wells per determination.
Experiment [3] addresses T2, endogenous muscarinic receptor (Homo sapiens, UniProt P20309).
T2 construct: stimulated an endogenous muscarinic receptor; endogenous in cells; host or cells: parental HEK293 apoaequorin cells (293AEQ17 / HEK-AEQ17)
The experiment can be described thus: Fluo-4 fluorescence calcium response in HEK-AEQ17 cells (VIPR). The following applies: 3 μM BAPTA-AM, muscimol (10 μM). Here is the method: The VIPR instrument was used to add agonist (in 100 μl enriched-PBS) after recording a 10 sec. baseline and the fluorescence was measured for up to 300 sec.
Muscimol stimulated an endogenous muscarinic receptor (Moriya, H., Takagi, Y., Nakanishi, T., Hayashi, M., Tani, T., and Hirotsu, I. (1999) Affinity profiles of various muscarinic antagonists for cloned human muscarinic acetylcholine receptor (MACHR) subtypes and MACHRS in rat heart and submandibular gland. Life Sciences 25 2351-2358; Caulfield, M. P. (1993) Muscarinic receptors-characterization, coupling and function. Pharmac. Ther. 58, 319-379)in HEK-AEQ17 cells which gave a robust fluorescence signal when measured with fluo-4 using the VIPR. The kinetics of this calcium transient was different from that measured for either the VR1 or hGHSR1a calcium transient. Activation with muscimol (10 μM) caused a fast transient response, followed by a slower response (FIG. 9A). The fast transient response was very sensitive to BAPTA, and was eliminated by low levels of the chelator (3 μM BAPTA-AM), but a fluorescence signal could be detected under these conditions that was stable for at least 3 minutes. At a higher BAPTA concentration (10 μM BAPTA-AM), the increase in fluorescence was very slow and had not yet stabilized even after 3 minutes.

Molecules are shown by their SMILES.

T1 sequence (Q92847 whole entry): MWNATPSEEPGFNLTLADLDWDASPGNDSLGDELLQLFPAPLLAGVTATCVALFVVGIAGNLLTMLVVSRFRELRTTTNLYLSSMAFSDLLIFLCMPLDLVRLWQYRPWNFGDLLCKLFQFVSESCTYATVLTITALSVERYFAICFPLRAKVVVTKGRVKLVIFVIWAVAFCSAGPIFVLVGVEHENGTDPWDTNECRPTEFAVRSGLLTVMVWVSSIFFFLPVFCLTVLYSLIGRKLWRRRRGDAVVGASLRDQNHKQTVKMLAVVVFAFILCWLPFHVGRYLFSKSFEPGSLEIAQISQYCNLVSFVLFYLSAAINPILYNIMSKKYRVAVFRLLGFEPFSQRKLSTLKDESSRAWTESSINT
T2 sequence (P20309 whole entry): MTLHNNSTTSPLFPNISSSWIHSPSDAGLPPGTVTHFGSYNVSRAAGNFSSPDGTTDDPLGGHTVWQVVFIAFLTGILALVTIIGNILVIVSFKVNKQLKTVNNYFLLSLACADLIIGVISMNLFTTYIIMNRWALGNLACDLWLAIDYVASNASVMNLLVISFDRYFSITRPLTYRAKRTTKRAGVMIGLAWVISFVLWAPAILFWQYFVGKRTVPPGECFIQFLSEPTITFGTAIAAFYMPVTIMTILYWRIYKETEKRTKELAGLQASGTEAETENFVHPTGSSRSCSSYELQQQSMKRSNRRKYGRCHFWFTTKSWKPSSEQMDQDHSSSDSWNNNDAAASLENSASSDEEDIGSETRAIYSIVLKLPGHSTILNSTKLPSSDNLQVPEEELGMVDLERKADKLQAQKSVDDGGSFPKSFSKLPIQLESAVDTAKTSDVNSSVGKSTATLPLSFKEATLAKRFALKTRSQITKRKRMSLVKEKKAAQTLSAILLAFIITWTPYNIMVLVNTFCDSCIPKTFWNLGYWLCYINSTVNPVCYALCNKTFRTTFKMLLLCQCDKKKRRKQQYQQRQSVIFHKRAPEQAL

As to `CC(=O)OCOC(=O)CN(CC(=O)OCOC(C)=O)c1ccccc1OCCOc1ccccc1N(CC(=O)OCOC(C)=O)CC(=O)OCOC(C)=O` [BAPTA-AM, 1,2-bis(o-aminophenoxy)ethane-N,N,N′,N′-tetraacetic acid tetra(acetoxymethyl)ester], in experiment [1], the “duration of stable fluorescent signal” value was “up to 5 minutes” and the “time to peak fluorescence response” value was 150 s. For the same molecule, in experiment [2], the “luminescence signal relative to the response in the absence of BAPTA” value is on record as “about 5%” and the “time to reach the maximum light emission” value came out at 75 s. In addition, in experiment [3], the “duration of stable fluorescence signal” value is on record as “at least 3 minutes” and the “effect on fast transient response” value was “eliminated”.

For the origin of these results see US6514709B1, “High throughput screening by measurement of intracellular calcium levels” (Merck & Co., Inc., priority 2000, dated 2003).
